Patent US11046699B2, “Pyrazolo-pyrimidin-amino-cycloalkyl compounds and their therapeutic uses” (RAPT THERAPEUTICS, INC., priority 2018, dated 2021)
Counter-ions that a name gives are not always drawn. Like-named read-outs stand apart in the source and are kept apart here.

Target: GCN2 (Homo sapiens, UniProt Q9P2K8)
Assay: GCN2 enzymatic endpoint assay: phosphorylation of GFP-eIF2α measured by TR-FRET (Lanthascreen)
Assay type: biochemical
Procedure, shortened: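 Kinase activity is measured as phosphorylation of GFP-labelled eIF2α (80 nM) with ATP at 2 μM. Incubation runs 90 minutes at room temperature before EDTA quench and terbium-antibody detection.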

[1] = tested as described in Example 77, compound and/or hydrochloride, dihydrochloride or trifluoroacetic acid salt, read-out: IC 50 Activity
[2] = GCN2 biochemical IC50, 4 nM GCN2, 2 μM ATP, 80 nM GFP-eIF2α, 90 min RT, read-out: GCN2 activity

Sequence of GCN2 (Q9P2K8 whole entry): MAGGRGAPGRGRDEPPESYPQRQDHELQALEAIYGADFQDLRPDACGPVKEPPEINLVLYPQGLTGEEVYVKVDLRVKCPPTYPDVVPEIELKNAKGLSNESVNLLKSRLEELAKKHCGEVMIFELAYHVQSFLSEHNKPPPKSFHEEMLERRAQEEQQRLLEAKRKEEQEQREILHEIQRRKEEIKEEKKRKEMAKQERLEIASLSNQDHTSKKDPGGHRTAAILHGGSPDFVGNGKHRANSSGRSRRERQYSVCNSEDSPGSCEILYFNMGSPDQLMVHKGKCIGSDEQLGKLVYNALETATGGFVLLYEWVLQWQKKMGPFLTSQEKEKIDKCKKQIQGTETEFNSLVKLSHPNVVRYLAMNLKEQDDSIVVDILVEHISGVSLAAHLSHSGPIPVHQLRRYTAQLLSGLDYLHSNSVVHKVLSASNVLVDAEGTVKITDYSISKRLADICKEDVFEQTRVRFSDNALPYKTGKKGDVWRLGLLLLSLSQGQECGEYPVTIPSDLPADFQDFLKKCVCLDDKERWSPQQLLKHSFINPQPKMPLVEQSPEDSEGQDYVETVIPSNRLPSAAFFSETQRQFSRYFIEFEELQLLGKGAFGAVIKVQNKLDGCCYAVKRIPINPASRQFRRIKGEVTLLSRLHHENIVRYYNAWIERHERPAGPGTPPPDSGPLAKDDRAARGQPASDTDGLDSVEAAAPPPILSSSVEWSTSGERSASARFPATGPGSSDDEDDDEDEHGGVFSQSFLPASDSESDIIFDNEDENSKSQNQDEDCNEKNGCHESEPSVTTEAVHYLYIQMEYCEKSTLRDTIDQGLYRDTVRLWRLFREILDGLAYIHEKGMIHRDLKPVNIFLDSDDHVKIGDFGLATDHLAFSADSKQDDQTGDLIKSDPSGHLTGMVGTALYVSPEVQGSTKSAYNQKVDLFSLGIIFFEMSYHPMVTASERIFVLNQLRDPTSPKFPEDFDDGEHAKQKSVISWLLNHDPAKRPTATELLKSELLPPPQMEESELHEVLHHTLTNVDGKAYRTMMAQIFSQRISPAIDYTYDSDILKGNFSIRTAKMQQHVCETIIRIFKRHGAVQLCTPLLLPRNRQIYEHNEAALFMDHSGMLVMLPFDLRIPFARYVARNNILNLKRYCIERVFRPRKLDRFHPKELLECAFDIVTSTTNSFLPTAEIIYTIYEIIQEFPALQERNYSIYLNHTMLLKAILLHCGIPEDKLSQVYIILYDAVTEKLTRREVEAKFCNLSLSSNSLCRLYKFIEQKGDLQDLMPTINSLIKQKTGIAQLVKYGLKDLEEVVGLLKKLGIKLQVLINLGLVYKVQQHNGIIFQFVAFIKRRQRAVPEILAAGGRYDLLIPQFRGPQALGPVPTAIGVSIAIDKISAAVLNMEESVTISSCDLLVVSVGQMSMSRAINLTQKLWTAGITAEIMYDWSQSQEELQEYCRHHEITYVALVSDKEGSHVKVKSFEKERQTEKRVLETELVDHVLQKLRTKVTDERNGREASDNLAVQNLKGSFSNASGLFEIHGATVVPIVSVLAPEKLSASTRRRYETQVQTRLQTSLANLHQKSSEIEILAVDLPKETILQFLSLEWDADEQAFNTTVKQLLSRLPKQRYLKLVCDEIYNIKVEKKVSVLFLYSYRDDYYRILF

SMILES | IC50 [1] | IC50 [2]
CNC(=O)[C@@H]1CC[C@@H](Nc2ncc3c(Br)nn(-c4ccc(-c5cnn(CCOC)c5)cc4)c3n2)C1 [(1R,3R)-3-[[3-bromo-1-[4-[1-(2-methoxy-ethyl)pyrazol-4-yl]phenyl]pyrazolo[3,4-d]pyrimidin-6-yl]amino]-N-methyl-cyclopentanecarboxamide] | 25 to 200 nM | 
CNC(=O)[C@]1(C)CC[C@@H](Nc2ncc3c(Br)nn(-c4ccc(-c5cnc(C)o5)cc4)c3n2)C1 [(1R,3R)-3-[[3-bromo-1-[4-(2-methyloxazol-5-yl)phenyl]pyrazolo[3,4-d]pyrimidin-6-yl]amino]-N,1-dimethyl-cyclopentane-carboxamide] | 25 to 200 nM | 
CNC(=O)[C@]1(C)CC[C@@H](Nc2ncc3c(Br)nn(-c4ccc(-c5nnc(C(C)(C)N)o5)c(F)c4)c3n2)C1 [(1R,3R)-3-[[1-[4-[5-(1-amino-1-methyl-ethyl)-1,3,4-oxadiazol-2-yl]-3-fluoro-phenyl]-3-bromo-pyrazolo[3,4-d]pyrimidin-6-yl]amino]-N,1-dimethyl-cyclopentanecarboxamide] | 25 to 200 nM | 
CN(C)S(=O)(=O)[C@@H]1CC[C@@H](Nc2ncc3c(Br)nn(-c4ccc5ncccc5c4)c3n2)C1 [(1R,3R)-3-((3-bromo-1-(quinolin-6-yl)-1H-pyrazolo[3,4-d]pyrimidin-6-yl)amino)-N,N-dimethylcyclopentane-1-sulfonamide] | 25 to 200 nM | 
CNS(=O)(=O)C1CC[C@@H](Nc2ncc3c(Br)nn(-c4cc(Cl)cc([C@H](C)N)c4)c3n2)C1 (stereo partly drawn) | 25 to 200 nM | 
COCCN(C)C(=O)[C@]1(C)CC[C@@H](Nc2ncc3c(Br)nn(-c4cc(F)c5ncccc5c4)c3n2)C1 [(1R,3R)-3-[[3-bromo-1-(8-fluoro-6-quinolyl)pyrazolo[3,4-d]pyrimidin-6-yl]amino]-N-(2-methoxyethyl)-N,1-dimethyl-cyclopentane-carboxamide] | < 25 nM | 
CNC(=O)[C@]1(C)CC[C@@H](Nc2ncc3c(Br)nn(-c4ccc5c(c4)CN(S(C)(=O)=O)C5)c3n2)C1 [Example 61, (1R,3R)-3-((3-bromo-1-(2-(methylsulfonyl)isoindolin-5-yl)-1H-pyrazolo[3,4-d]pyrimidin-6-yl)amino)-N,1-dimethylcyclopentane-1-carboxamide] |  | 25 to 200 nM
CNC(=O)[C@]1(C)CC[C@@H](Nc2ncc3c(Br)nn(-c4ccc5ncc(NC(=O)C6CNC6)cc5c4)c3n2)C1 [N-[6-[3-bromo-6-[[(1R,3R)-3-methyl-3-(methylcarbamoyl)cyclopentyl]amino]pyrazolo[3,4-d]pyrimidin-1-yl]-3-quinolyl]azetidine-3-carboxamide] | < 25 nM | 
CNC(=O)[C@]1(C)CC[C@@H](Nc2ncc3c(Br)nn(-c4ccc5c(c4)OCC(=O)N5C(C)C)c3n2)C1 [(1R,3R)-3-[[3-bromo-1-(4-isopropyl-3-oxo-1,4-benzoxazin-7-yl)pyrazolo[3,4-d]pyrimidin-6-yl]amino]-N,1-dimethyl-cyclopentanecarboxamide] | 25 to 200 nM | 
CNC(=O)[C@]1(C)CC[C@@H](Nc2ncc3c(Br)nn(-c4cc(CCO)c5ncccc5c4)c3n2)C1 [Example 29, (1R,3R)-3-((3-bromo-1-(8-(2-hydroxyethyl)quinolin-6-yl)-1H-pyrazolo[3,4-d]pyrimidin-6-yl)amino)-N,1-dimethylcyclopentane-1-carboxamide hydrochloride] |  | < 25 nM
COCCNS(=O)(=O)[C@H]1CC[C@@H](Nc2ncc3c(Br)nn(-c4ccc(-c5nnc(C)s5)cc4)c3n2)C1 [(1S,3R)-3-[[3-bromo-1-[4-(5-methyl-1,3,4-thiadiazol-2-yl)phenyl]pyrazolo[3,4-d]pyrimidin-6-yl]amino]-N-(2-methoxyethyl)cyclopentanesulfonamide] | 25 to 200 nM | 
CNC(=O)[C@]1(C)CC[C@@H](Nc2ncc3c(Br)nn(-c4ccc(-c5ncco5)c(CCN)c4)c3n2)C1 [(1R,3R)-3-[[1-[3-(2-aminoethyl)-4-oxazol-2-yl-phenyl]-3-bromo-pyrazolo[3,4-d]pyrimidin-6-yl]amino]-N,1-dimethyl-cyclopentanecarboxamide] | 25 to 200 nM | 
CNC(=O)[C@]1(C)CCC(Nc2ncc3c(Br)nn(-c4cnc(-c5nnc(C)s5)c(F)c4)c3n2)C1 (stereo partly drawn) [(1R)-3-[[3-bromo-1-[5-fluoro-6-(5-methyl-1,3,4-thiadiazol-2-yl)-3-pyridyl]pyrazolo [3,4-d]pyrimidin-6-yl]amino]-N,1-dimethyl-cyclopentanecarboxamide] | 25 to 200 nM | 
CN1CN(C(=O)[C@]2(C)CC[C@@H](Nc3ncc4c(Br)nn(-c5cc(F)c6ncccc6c5)c4n3)C2)CC1=O [1-[(1R,3R)-3-[[3-bromo-1-(8-fluoro-6-quinolyl)pyrazolo[3,4-d]pyrimidin-6-yl]amino]-1-methyl-cyclopentanecarbonyl]-3-methyl-imidazolidin-4-one] | < 25 nM | 
COCCNC(=O)[C@@H]1CC[C@@H](Nc2ncc3c(Br)nn(-c4ccc5cccnc5c4)c3n2)C1 [(1R,3R)-3-((3-bromo-1-(quinolin-7-yl)-1H-pyrazolo[3,4-d]pyrimidin-6-yl)amino)-N-(2-methoxyethyl)cyclopentane-1-carboxamide] | 200 to 500 nM | 
CNC(=O)[C@]1(C)CC[C@@H](Nc2ncc3c(Br)nn(-c4ccc5c(c4)SCC(=O)N5C)c3n2)C1 [(1R,3R)-3-[[3-bromo-1-(4-methyl-3-oxo-1,4-benzothiazin-7-yl)pyrazolo[3,4-d]pyrimidin-6-yl]amino]-N,1-dimethyl-cyclopentanecarboxamide] | 25 to 200 nM | 
O=C(NCCn1ccnc1)[C@@H]1CC[C@@H](Nc2ncc3c(Br)nn(-c4ccc5ncccc5c4)c3n2)C1 [(1R,3R)-N-(2-(1H-imidazol-1-yl)ethyl)-3-((3-bromo-1-(quinolin-6-yl)-1H-pyrazolo[3,4-d]pyrimidin-6-yl)amino)cyclopentane-1-carboxamide] | 25 to 200 nM | 
CNC(=O)[C@]1(C)CC[C@@H](Nc2ncc3c(Br)nn(-c4ccc(-c5nnc(C)s5)nc4)c3n2)C1 | 25 to 200 nM | 
CNC(=O)[C@]1(CC(F)F)CC[C@@H](Nc2ncc3c(Br)nn(-c4ccc(-c5cnccn5)cc4)c3n2)C1 [(1R,3R)-3-[[3-bromo-1-(4-pyrazin-2-ylphenyl)pyrazolo[3,4-d]pyrimidin-6-yl]amino]-1-(2,2-difluoroethyl)-N-methyl-cyclopentanecarboxamide] | 25 to 200 nM | 
CCc1nnc(-c2ccc(-n3nc(Br)c4cnc(N[C@@H]5CC[C@@](C)(C(=O)NC)C5)nc43)cc2)s1 [(1R,3R)-3-[[3-bromo-1-[4-(5-ethyl-1,3,4-thiadiazol-2-yl)phenyl]pyrazolo[3,4-d]pyrimidin-6-yl]amino]-N,1-dimethyl-cyclopentanecarboxamide] | 25 to 200 nM | 
CNC(=O)[C@]1(CC(F)F)CC[C@@H](Nc2ncc3c(Br)nn(-c4ccc5nccnc5c4)c3n2)C1 [Example 51, (1R,3R)-3-((3-bromo-1-(quinoxalin-6-yl)-1H-pyrazolo[3,4-d]pyrimidin-6-yl)amino)-1-(2,2-difluoroethyl)-N-methylcyclopentane-1-carboxamide; 2,2,2-trifluoroacetic acid] |  | 25 to 200 nM
CNC(=O)[C@H]1CC[C@@H](Nc2ncc3c(Br)nn(-c4cc(F)c5ncccc5c4)c3n2)C1 [(1S,3R)-3-[[3-bromo-1-(8-fluoro-6-quinolyl)pyrazolo[3,4-d]pyrimidin-6-yl]amino]-N-methyl-cyclopentanecarboxamide] | < 25 nM | 
O=C(NCc1nnn[nH]1)[C@@H]1CC[C@@H](Nc2ncc3c(Br)nn(-c4cc(F)c5ncccc5c4)c3n2)C1 [(1R,3R)-N-((1H-tetrazol-5-yl)methyl)-3-((3-bromo-1-(8-fluoroquinolin-6-yl)-1H-pyrazolo [3,4-d]pyrimidin-6-yl)amino)cyclopentane-1-carboxamide] | 25 to 200 nM | 
CNC(=O)[C@]1(CC(F)F)CC[C@@H](Nc2ncc3c(Br)nn(-c4cc(F)c5ncccc5c4)c3n2)C1 [(1R,3R)-3-[[3-bromo-1-(8-fluoro-6-quinolyl)pyrazolo[3,4-d]pyrimidin-6-yl]amino]-1-(2,2-difluoroethyl)-N-methyl-cyclopentane-carboxamide] | < 25 nM | 
CS(=O)(=O)CCNC(=O)[C@@H]1CC[C@@H](Nc2ncc3c(Br)nn(-c4cnn(-c5ccncc5)c4)c3n2)C1 [(1R,3R)-3-((3-bromo-1-(1-(pyridin-4-yl)-1H-pyrazol-4-yl)-1H-pyrazolo[3,4-d]pyrimidin-6-yl)amino)-N-(2-(methylsulfonyl)ethyl)cyclo-pentane-1-carboxamide] | 200 to 500 nM | 
CNC(=O)[C@]1(C(F)(F)F)CC[C@@H](Nc2ncc3c(Br)nn(-c4cc(F)c5ncccc5c4)c3n2)C1 [(1S,3R)-3-[[3-bromo-1-(8-fluoro-6-quinolyl)pyrazolo[3,4-d]pyrimidin-6-yl]amino]-N-methyl-1-(trifluoromethyl)cyclopentane-carboxamide] | 25 to 200 nM | 
O=C([C@@H]1CC[C@@H](Nc2ncc3c(Br)nn(-c4cc(F)c5ncccc5c4)c3n2)C1)N1CCN2C(=O)CC[C@H]2C1 [(8aS)-2-[(1R,3R)-3-[[3-bromo-1-(8-fluoro-6-quinolyl)pyrazolo[3,4-d]pyrimidin-6-yl]amino]cyclopentane-carbonyl]-1,3,4,7,8,8a-hexahydro-pyrrolo[1,2-a]pyrazin-6-one] | < 25 nM | 
CNC(=O)[C@]1(C)CC[C@@H](Nc2ncc3c(Br)nn(-c4cc5cccnc5cn4)c3n2)C1 [(1R,3R)-3-[[3-bromo-1-(1,7-naphthyridin-6-yl)pyrazolo[3,4-d]pyrimidin-6-yl]amino]-N,1-dimethyl-cyclopentane-carboxamide] | 25 to 200 nM | 
CNC(=O)[C@]1(C)CC[C@@H](Nc2ncc3c(Br)nn(-c4cc(COC)c5ncccc5c4)c3n2)C1 [(1R,3R)-3-[[3-bromo-1-[8-(methoxymethyl)-6-quinolyl]pyrazolo[3,4-d]pyrimidin-6-yl]amino]-N,1-dimethyl-cyclopentane-carboxamide] | 25 to 200 nM | 
COCCNC(=O)[C@@H]1CC[C@@H](Nc2ncc3c(I)nn(-c4ccc5ncccc5c4)c3n2)C1 [Example 13, (1R,3R)-3-((3-iodo-1-(quinolin-6-yl)-1H-pyrazolo[3,4-d]pyrimidin-6-yl)amino)-N-(2-methoxyethyl)cyclopentane-1-carboxamide] |  | < 25 nM
